Measured values reported in publication PMC5458547, “Discovery of first-in-class reversible dual small molecule inhibitors against G9a and DNMTs in hematological malignancies” (Nature Communications, 2017).
pIC50: −log10 of the molar value.

How the values were obtained:
[1] = target: T1, TRIM24 (Homo sapiens, UniProt O15164); assay: Epigenetics selectivity panel (BPS Bioscience); type: binding
T1 construct: purchased DiscoverX KINOMEscan (kinases); BPS Bioscience (epigenetic targets)

[2] = test system: UM-UC-7; assay: Cell proliferation assay (MTS); type: cell-based; conditions: Homo sapiens; Bladder
[3] = test system: CAKI-2; assay: Cell proliferation assay (MTS); type: cell-based; conditions: Homo sapiens, Renal
[4] = test system: PEER; assay: Cell proliferation assay (MTS); type: cell-based; conditions: Homo sapiens; ALL, 48 h
[5] = target: T2, SET7-9 (Homo sapiens, UniProt Q8WTS6); assay: Epigenetics selectivity panel (BPS Bioscience); type: biochemical
T2 construct: purchased DiscoverX KINOMEscan (kinases); BPS Bioscience (epigenetic targets)
T2 sequence (Q8WTS6 whole entry): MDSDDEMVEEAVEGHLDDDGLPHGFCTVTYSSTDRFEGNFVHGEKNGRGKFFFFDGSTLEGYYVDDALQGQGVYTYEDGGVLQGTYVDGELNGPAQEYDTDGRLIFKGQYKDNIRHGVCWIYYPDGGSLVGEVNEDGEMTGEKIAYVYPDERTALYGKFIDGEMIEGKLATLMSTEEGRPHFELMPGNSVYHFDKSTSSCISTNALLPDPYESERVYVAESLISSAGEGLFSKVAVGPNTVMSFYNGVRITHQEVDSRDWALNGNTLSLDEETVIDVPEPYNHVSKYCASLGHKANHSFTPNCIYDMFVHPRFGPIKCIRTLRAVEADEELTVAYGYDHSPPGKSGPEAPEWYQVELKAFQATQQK

[6] = target: T3, JMJD2E (Homo sapiens, UniProt B2RXH2); assay: Epigenetics selectivity panel (BPS Bioscience); type: biochemical
T3 construct: purchased DiscoverX KINOMEscan (kinases); BPS Bioscience (epigenetic targets)
T3 sequence (B2RXH2 whole entry): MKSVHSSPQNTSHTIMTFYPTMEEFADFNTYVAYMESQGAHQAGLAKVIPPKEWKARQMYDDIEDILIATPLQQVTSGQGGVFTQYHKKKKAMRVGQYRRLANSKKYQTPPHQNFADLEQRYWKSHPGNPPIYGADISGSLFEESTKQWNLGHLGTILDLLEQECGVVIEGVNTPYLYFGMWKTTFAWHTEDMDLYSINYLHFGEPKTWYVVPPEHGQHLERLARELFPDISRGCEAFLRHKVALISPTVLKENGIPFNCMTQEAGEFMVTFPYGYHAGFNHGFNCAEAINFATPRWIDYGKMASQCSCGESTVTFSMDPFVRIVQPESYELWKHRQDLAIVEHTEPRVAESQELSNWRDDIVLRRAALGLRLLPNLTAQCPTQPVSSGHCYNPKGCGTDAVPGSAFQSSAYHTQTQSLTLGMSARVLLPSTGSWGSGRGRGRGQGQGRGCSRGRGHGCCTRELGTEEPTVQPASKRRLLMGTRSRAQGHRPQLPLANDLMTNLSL

[7] = test system: JJN3; assay: Cell proliferation assay (MTS); type: cell-based; conditions: Homo sapiens, JJN-3; MM
[8] = Liver microsomal stability; type: in vitro ADME; conditions: human, human liver microsomes; read-out: Liver Microsomal Stability. Estimation T1/2
[9] = target: T4, Jarid1A (Homo sapiens, UniProt P29375); assay: Epigenetics selectivity panel (BPS Bioscience); type: biochemical
T4 construct: purchased DiscoverX KINOMEscan (kinases); BPS Bioscience (epigenetic targets)

[10] = test system: KASUMI-1; assay: Cell proliferation assay (MTS); type: cell-based; conditions: Homo sapiens, AML, 48 h
[11] = test system: U87-MG; assay: Cell proliferation assay (MTS); type: cell-based; conditions: Homo sapiens, U-87 MG; Glioblastoma
[12] = test system: UACC-62; assay: Cell proliferation assay (MTS); type: cell-based; conditions: Homo sapiens, Melanoma
[13] = target: T5, PRMT4 (Homo sapiens, UniProt Q86X55); assay: Epigenetics selectivity panel (BPS Bioscience); type: biochemical
T5 construct: purchased DiscoverX KINOMEscan (kinases); BPS Bioscience (epigenetic targets)

[14] = test system: OCI-AML-2; assay: Cell proliferation assay (MTS); type: cell-based, human; conditions: Homo sapiens, OCI-AML2; AML, 48 h; read-out: GI50
[15] = Maximum tolerated dose; conditions: mouse, in vivo, iv
[16] = target: T6, ATAD2A (Homo sapiens, UniProt Q6PL18); assay: Epigenetics selectivity panel (BPS Bioscience); type: binding
T6 construct: purchased DiscoverX KINOMEscan (kinases); BPS Bioscience (epigenetic targets)
T6 sequence (Q6PL18 whole entry): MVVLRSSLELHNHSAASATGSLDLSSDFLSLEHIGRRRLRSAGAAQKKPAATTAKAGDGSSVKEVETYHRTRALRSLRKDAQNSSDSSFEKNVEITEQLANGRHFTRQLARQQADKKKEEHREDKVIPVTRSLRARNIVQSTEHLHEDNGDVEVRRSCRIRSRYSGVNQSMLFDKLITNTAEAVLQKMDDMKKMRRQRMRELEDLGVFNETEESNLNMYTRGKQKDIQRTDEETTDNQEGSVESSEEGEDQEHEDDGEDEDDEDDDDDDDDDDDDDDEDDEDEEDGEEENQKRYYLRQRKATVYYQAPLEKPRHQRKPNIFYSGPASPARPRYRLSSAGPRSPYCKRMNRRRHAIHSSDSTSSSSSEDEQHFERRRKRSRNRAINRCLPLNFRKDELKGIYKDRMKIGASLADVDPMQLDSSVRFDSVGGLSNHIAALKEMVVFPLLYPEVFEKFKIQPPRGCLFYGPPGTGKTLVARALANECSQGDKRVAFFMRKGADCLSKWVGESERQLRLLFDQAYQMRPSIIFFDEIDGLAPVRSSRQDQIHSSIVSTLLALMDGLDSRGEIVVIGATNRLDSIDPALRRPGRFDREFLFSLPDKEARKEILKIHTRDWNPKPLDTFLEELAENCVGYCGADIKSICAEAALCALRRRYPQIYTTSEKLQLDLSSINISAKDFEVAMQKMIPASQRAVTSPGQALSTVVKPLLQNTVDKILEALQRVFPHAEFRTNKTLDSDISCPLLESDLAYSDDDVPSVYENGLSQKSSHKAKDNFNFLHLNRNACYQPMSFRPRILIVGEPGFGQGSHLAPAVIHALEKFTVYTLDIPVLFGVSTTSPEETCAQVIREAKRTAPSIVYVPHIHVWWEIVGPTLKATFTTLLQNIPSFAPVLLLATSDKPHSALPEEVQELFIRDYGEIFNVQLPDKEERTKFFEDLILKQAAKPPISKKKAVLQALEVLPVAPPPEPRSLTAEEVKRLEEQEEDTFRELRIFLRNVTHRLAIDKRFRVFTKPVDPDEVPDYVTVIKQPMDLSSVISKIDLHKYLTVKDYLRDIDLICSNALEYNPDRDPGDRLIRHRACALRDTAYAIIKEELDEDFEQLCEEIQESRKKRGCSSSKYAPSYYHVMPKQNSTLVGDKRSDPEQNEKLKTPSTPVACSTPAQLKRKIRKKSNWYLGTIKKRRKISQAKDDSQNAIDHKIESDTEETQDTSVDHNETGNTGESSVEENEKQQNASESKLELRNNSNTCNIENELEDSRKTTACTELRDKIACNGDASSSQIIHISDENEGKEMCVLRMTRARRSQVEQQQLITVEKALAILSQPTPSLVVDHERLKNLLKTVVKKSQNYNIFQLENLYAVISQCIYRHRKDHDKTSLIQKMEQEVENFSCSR

[17] = test system: LOVO; assay: Cell proliferation assay (MTS); type: cell-based; conditions: Homo sapiens, Colorectal
[18] = test system: MOLT-4; assay: Cell proliferation assay (MTS); type: cell-based; conditions: Homo sapiens, ALL, 48 h
[19] = test system: LAL-CUN-2; assay: Cell proliferation assay (MTS); type: cell-based; conditions: Homo sapiens; ALL, 48 h; read-out: GI50
[20] = test system: HELA; assay: Cell proliferation assay (MTS); type: cell-based; conditions: Homo sapiens, Cervical
[21] = test system: NALM-20; assay: Cell proliferation assay (MTS); type: cell-based; conditions: Homo sapiens; ALL, 48 h
[22] = test system: MM1.R; assay: Cell proliferation assay (MTS); type: cell-based; conditions: Homo sapiens, MM.1R
[23] = test system: OPM2; assay: Cell proliferation assay (MTS); type: cell-based; conditions: Homo sapiens, OPM-2; MM
[24] = test system: RT112; assay: Cell proliferation assay (MTS); type: cell-based; conditions: Homo sapiens, RT-112; Bladder
[25] = test system: KMS28BM; assay: Cell proliferation assay (MTS); type: cell-based; conditions: Homo sapiens, KMS-28BM; MM
[26] = test system: 451-LU; assay: Cell proliferation assay (MTS); type: cell-based; conditions: Homo sapiens, Melanoma
[27] = target: T7, TAF1 (Homo sapiens, UniProt P21675); assay: Epigenetics selectivity panel (BPS Bioscience); type: binding
T7 construct: purchased DiscoverX KINOMEscan (kinases); BPS Bioscience (epigenetic targets)

[28] = target: T8, PRMT6 (Homo sapiens, UniProt Q96LA8); assay: Epigenetics selectivity panel (BPS Bioscience); type: biochemical
T8 construct: purchased BPS Bioscience (contract panel)
T8 sequence (Q96LA8 whole entry): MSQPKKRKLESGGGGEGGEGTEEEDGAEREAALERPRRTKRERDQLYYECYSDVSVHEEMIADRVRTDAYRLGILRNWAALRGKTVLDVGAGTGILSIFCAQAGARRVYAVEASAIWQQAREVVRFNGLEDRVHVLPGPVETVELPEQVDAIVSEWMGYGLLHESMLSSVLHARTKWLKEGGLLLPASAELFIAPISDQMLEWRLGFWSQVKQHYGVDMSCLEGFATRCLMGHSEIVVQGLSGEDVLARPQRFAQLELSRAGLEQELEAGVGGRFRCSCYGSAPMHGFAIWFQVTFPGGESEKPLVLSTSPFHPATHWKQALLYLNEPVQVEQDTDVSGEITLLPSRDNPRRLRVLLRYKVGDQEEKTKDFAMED

[29] = target: T9, BRD4(BD1+BD2) (Homo sapiens, UniProt O60885); assay: Epigenetics selectivity panel (BPS Bioscience); type: binding
T9 construct: BRD2(BD1+BD2), BRD4(BD1+BD2), BRDT(BD1); purchased BPS Bioscience (contract panel)

[30] = test system: SEM cells; assay: Cell proliferation assay (MTS); type: cell-based; conditions: Homo sapiens; ALL, 48 h
[31] = target: T10, BAZ2B (Homo sapiens, UniProt Q9UIF8); assay: Epigenetics selectivity panel (BPS Bioscience); type: binding
T10 construct: purchased DiscoverX KINOMEscan (kinases); BPS Bioscience (epigenetic targets)

[32] = target: T11, DNMT3A (Homo sapiens, UniProt Q9Y6K1); assay: Epigenetics selectivity panel (BPS Bioscience); type: biochemical
T11 construct: purchased BPS Bioscience (contract panel)

[33] = target: T12, EZH2 (Homo sapiens, UniProt Q15910); assay: Epigenetics selectivity panel (BPS Bioscience); type: biochemical
T12 construct: purchased DiscoverX KINOMEscan (kinases); BPS Bioscience (epigenetic targets)

[34] = test system: MOLM-13; assay: Cell proliferation assay (MTS); type: cell-based; conditions: Homo sapiens, AML, 48 h
[35] = test system: H1299; assay: Cell proliferation assay (MTS); type: cell-based; conditions: Homo sapiens, NCI-H1299; NSCLC
[36] = target: T13, CREBBP (Homo sapiens, UniProt Q92793); assay: Epigenetics selectivity panel (BPS Bioscience); type: binding
T13 construct: purchased DiscoverX KINOMEscan (kinases); BPS Bioscience (epigenetic targets)
T13 sequence (Q92793 whole entry): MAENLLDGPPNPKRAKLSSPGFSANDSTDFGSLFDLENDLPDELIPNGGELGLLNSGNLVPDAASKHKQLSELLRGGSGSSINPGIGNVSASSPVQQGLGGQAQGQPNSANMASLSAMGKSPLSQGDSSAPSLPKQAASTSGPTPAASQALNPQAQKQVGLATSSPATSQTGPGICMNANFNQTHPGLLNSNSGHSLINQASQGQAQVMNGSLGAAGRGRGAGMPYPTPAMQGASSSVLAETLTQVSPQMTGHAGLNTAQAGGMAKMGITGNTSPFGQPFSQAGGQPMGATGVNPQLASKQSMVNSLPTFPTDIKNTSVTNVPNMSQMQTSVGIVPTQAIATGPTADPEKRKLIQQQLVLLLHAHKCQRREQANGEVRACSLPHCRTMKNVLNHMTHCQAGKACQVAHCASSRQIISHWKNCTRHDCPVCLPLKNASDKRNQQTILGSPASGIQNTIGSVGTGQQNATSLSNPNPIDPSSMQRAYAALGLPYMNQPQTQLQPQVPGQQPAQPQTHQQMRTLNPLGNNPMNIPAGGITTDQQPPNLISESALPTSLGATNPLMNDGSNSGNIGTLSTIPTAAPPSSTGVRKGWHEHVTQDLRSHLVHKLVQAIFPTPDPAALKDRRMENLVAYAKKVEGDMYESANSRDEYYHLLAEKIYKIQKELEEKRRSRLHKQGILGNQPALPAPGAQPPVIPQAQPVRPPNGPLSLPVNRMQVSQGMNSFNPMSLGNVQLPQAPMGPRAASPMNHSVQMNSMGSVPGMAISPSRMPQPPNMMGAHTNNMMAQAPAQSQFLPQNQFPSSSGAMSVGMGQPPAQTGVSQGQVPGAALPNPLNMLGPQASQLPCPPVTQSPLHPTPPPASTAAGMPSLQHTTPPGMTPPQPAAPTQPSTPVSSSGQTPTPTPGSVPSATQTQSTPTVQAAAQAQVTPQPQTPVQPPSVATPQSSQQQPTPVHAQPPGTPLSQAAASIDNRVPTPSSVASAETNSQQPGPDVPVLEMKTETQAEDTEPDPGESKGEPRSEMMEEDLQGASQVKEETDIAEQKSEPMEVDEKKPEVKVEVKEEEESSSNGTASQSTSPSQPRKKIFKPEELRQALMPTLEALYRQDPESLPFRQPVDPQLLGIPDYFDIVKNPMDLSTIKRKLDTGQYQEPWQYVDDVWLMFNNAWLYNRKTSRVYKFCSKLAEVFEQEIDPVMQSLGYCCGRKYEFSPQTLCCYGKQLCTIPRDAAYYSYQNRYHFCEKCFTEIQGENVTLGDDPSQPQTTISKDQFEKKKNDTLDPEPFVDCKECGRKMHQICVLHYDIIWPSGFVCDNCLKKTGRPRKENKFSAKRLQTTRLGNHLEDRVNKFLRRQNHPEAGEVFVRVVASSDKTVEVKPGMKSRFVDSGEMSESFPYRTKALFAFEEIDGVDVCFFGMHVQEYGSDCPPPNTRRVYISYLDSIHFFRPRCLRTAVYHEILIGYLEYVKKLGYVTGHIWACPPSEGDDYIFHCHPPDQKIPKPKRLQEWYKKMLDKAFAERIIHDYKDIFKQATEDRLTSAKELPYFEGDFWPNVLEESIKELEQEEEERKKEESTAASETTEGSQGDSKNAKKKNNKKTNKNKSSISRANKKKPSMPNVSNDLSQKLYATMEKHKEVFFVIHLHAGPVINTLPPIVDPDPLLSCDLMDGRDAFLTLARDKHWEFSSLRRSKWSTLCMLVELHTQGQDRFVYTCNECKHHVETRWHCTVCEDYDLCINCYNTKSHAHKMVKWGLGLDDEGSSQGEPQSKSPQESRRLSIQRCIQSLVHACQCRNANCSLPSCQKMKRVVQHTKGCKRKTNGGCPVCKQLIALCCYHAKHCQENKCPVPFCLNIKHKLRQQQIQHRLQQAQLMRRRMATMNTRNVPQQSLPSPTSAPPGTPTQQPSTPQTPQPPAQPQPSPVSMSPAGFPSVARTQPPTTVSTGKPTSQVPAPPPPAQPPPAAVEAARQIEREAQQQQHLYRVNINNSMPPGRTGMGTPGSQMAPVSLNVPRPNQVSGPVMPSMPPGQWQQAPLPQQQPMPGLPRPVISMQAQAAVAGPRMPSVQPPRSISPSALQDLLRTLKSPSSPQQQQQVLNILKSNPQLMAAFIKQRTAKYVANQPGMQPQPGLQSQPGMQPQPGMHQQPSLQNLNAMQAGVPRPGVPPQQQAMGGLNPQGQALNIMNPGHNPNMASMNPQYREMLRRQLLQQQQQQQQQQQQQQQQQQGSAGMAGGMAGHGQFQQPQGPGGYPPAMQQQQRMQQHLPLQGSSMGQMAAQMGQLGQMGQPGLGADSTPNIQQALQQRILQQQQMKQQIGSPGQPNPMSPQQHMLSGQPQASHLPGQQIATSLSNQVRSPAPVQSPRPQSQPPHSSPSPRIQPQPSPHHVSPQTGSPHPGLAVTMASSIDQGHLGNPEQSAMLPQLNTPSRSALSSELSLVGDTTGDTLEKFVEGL

[37] = test system: H358; assay: Cell proliferation assay (MTS); type: cell-based; conditions: Homo sapiens, NCI-H358; NSCLC

Compound | inhibition at 10 µM [1] | GI50 [2] | GI50 [3] | GI50 [4] | inhibition at 10 µM [5] | inhibition at 10 µM [6] | GI50 [7] | half-life at 1 µM [8] | inhibition at 10 µM [9] | GI50 [10] | GI50 [11] | GI50 [12] | inhibition at 10 µM [13] | GI50 [14] | MTD [15] | inhibition at 10 µM [16] | GI50 [17] | GI50 [18] | GI50 [19] | GI50 [20] | further results
COc1cc2c(NC3CCN(C)CC3)cc(-c3ccc(C)o3)nc2cc1OCCCN1CCCC1 [CM-272, 6-methoxy-2-(5-methyl-2-furyl)-N-(1-methyl-4-piperidyl)-7-(3-pyrrolidin-1-ylpropoxy)quinolin-4-amine] | 0% | 964 nM | 2920 nM | 930 nM | 3% | 1% | 1320 nM | > 2.42 h | 2% | 7140 nM | 294 nM | 780 nM | 5% | 256 nM | 2.5 mg/kg | 0% | 1220 nM | > 5000 nM | 664 nM | 689 nM | GI50 [21]: > 5000 nM; GI50 [22]: 980 nM; GI50 [23]: 2610 nM; GI50 [24]: 899 nM; GI50 [25]: 1630 nM; GI50 [26]: 378 nM; inhibition at 10 µM [27]: 0%; inhibition at 10 µM [28]: 82%; pIC50 ([28]; BPS): 5.52; inhibition at 10 µM [29]: 56%; pIC50 ([29]; BPS): 5.82; GI50 [30]: 3320 nM; inhibition at 10 µM [31]: 0%; pIC50 [32]: 7.07; inhibition at 10 µM [33]: 1%; GI50 [34]: 604 nM; GI50 [35]: 1060 nM; inhibition at 10 µM [36]: 5%; GI50 [37]: 644 nM
COc1cc2c(NCC3CCN(C)CC3)cc(-c3ccc(C)o3)nc2cc1OCCCN1CCCC1 [CM-579, 6-methoxy-2-(5-methyl-2-furyl)-N-[(1-methyl-4-piperidyl)methyl]-7-(3-pyrrolidin-1-ylpropoxy)quinolin-4-amine] | 0% | 531 nM | 304 nM | > 10000 nM | 0% | 8% | 4350 nM | 1.48 h | 27% | 5210 nM | 118 nM | 150 nM | 6% | 490 nM | ≤ 1 mg/kg | 0% | 297 nM | > 10000 nM | 365 nM | 109 nM | GI50 [21]: > 10000 nM; GI50 [22]: 2110 nM; GI50 [23]: > 5000 nM; GI50 [24]: 319 nM; GI50 [25]: 7820 nM; GI50 [26]: 69 nM; inhibition at 10 µM [27]: 4%; inhibition at 10 µM [28]: 40%; inhibition at 10 µM [29]: 0%; GI50 [30]: > 10000 nM; inhibition at 10 µM [31]: 0%; pIC50 [32]: 7.04; inhibition at 10 µM [33]: 0%; GI50 [34]: 1020 nM; GI50 [35]: 547 nM; inhibition at 10 µM [36]: 0%; GI50 [37]: 197 nM
